The nature of the assay: Cytotoxicity against human HepG2(2.2.15) cells. Format: functional, cell-based.

The term IC50 denotes the concentration that inhibits the measured activity by half. `C=C[C@@]1(C)CCC=C(C[C@H](C)OC(=O)c2cc3c(c4c2c([N+](=O)[O-])cc2c(OC)cccc24)OCO3)[C@H]1C(=C)C=O` [ARISTOPHYLLIDE A] came in with an IC50 of 5.1 µM.

Molecule `C=C[C@@]1(C)CCC=C(C[C@@H](C)OC(=O)c2cc3c(c4c2c([N+](=O)[O-])cc2c(OC)cccc24)OCO3)[C@@H]1C(=C)C=O` [ARISTOPHYLLIDE B] registered an IC50 of 9.4 µM.

As to `C=C[C@@]1(C)CCC=C(C[C@H](C)OC(=O)c2cc3c(c4c2c([N+](=O)[O-])cc2ccccc24)OCO3)[C@H]1C(=C)C=O` [ARISTOPHYLLIDE C], the IC50 amounted to 6.2 µM.

`C=C[C@@]1(C)CCC=C(C[C@@H](C)OC(=O)c2cc3c(c4c2c([N+](=O)[O-])cc2ccccc24)OCO3)[C@@H]1C(=C)C=O` [ARISTOPHYLLIDE D]: the IC50 was determined as 13.2 µM.
